# Legend:
# [1] = tested on: STAT3 mRNA; experiment: STAT3 mRNA by Real-time qPCR; type: cell-based, human; conditions: H460, 0–2.5 μM, 8 h
# Procedure: To explore whether the reduction in total STAT3 protein after DH_31 treatments (as shown in Figure 5B–E) occurs at the mRNA or protein levels, we first investigated mRNA levels using Real-time qPCR. […] To evaluate whether DH_31 affects STAT3 stability, pretreatment with MG132, a potent selective proteasome inhibitor, was performed. H460 cells were pretreated with or without MG132 (10 μM) for 1 h and then cells were either treated with DH_31 for 6 h or left untreated. […] The proteasome can recognize and degrade protein targets that are conjugated by single or poly-ubiquitin molecules. To investigate the ubiquitination level of STAT3 with DH_31 treatments, the ubiquitination level was evaluated using immunoprecipitation and Western blot analysis of the STAT3–ubiquitin complex in the lung cancer cells treated with DH_31 and in untreated cells.
# Quantitative Real-time PCR was performed to determine the effect of DH_31 on mRNA levels of STAT3 and EMT-related genes. H460 cells (4.0 × 10^5 cells per well) were seeded in 6-well plates. Following overnight incubation, the cells were treated with different concentrations of DH_31 (0–2.5 μM)) for 8 h at 37 °C. After treatment, total RNA was isolated using the RNeasy kit (Qiagen, Germany) and subsequently subjected to cDNA synthesis using qScript cDNA Supermix (Quanta bio, Beverly, MA, USA), following the manufacturers’ protocols. […]
# [2] = tested on: BEAS-2B cells; experiment: MTT assay in non-tumorigenic bronchial epithelial cells (selectivity); type: cell-based; conditions: Homo sapiens, 24 h, read-out: BEAS-2B IC50 ± SD
# Procedure: NSCLCs H292 and H460 were treated with various concentrations of derivatives of the RT right-half analog for 24 h. […] However, the IC50 values for DH_17, DH_20, DH_23, and DH_26 in H460 cells were greater than 100 μM. TM-(−)-18 was identified as a potent compound in a previous study. The structure of TM-(−)-18 was present in Figure 1A. […] To assess the selectivity of DH_28, DH_30, DH_31, and TM-(−)-18 in lung cancer cells, non-tumorigenic epithelial cell lines derived from human bronchial epithelial cells (BEAS-2B) were treated with DH_28, DH_30, DH_31, and TM-(−)-18 at various concentrations for 24 h.
# Figure 2 The effect of RT right-half analogs on cytotoxicity in NSCLC and human normal lung epithelial (BEAS-2B) cell lines and apoptotic cell death in NSCLC cells. (A) NSCLC H292 and H460 cells were treated with derivatives of RT right-half analogs for 24 h and analyzed using MTT assay to assess cytotoxicity. (B) IC50 values for H292 and H460 cell lines were calculated. (C) BEAS-2B cells were treated with DH_28, DH_30, DH_31, and TM-(−)-18 for 24 h. The cytotoxic effects were evaluated using an MTT assay, and the IC50 values for BEAS-2B cells were determined. (D) H292 and H460 cells were seeded and treated with 0–10 μM of DH_28, DH_30, and DH_31 for 24 h. Hoechst 33342 and PI were used to stain the cell nuclei. Images were obtained under a fluorescence microscope. (E) The percentages of cell death were calculated based on the stained images in H292 and H460 cells. […] TEXT PRINTED IN THE PICTURE: (B) DH_17: IC50 ± SD (μM) H292: 20.50 ± 3.69; IC50 ± SD (μM) H460: > 100 | (B) DH_20: IC50 ± SD (μM) H292: 21.46 ± 3.77; IC50 ± SD (μM) H460: > 100 | (B) DH_23: IC50 ± SD (μM) H292: 17.50 ± 3.08; IC50 ± SD (μM) H460: > 100 | (B) DH_26: IC50 ± SD (μM) H292: 7.18 ± 2.39; IC50 ± SD (μM) H460: > 100 | (B) DH_28: IC50 ± SD (μM) H292: 9.56 ± 1.87; IC50 ± SD (μM) H460: 11.48 ± 1.87 | (B) DH_30: IC50 ± SD (μM) H292: 7.80 ± 2.30; IC50 ± SD (μM) H460: 4.51 ± 0.78 | (B) DH_31: IC50 ± SD (μM) H292: 5.54 ± 1.04; IC50 ± SD (μM) H460: 2.90 ± 0.58 | (B) TM-(–)-18: IC50 ± SD (μM) H292: > 100; IC50 ± SD (μM) H460: 7.89 ± 1.27 | (C) DH_28: BEAS-2B IC50 ± SD (μM): 16.46 ± 2.11 | (C) DH_30: BEAS-2B IC50 ± SD (μM): 5.50 ± 1.70 | (C) DH_31: BEAS-2B IC50 ± SD (μM): 6.51 ± 1.40 | (C) TM-(–)-18: BEAS-2B IC50 ± SD (μM): 7.25 ± 1.25 DOUBTS OF THE COPYIST ABOUT THIS PICTURE: Panel C, DH_28, IC50: small print, 16.46 ± 2.11 is the best reading; 6 could be 8 / Panel C, DH_30, IC50: small print, 5.50 ± 1.70 is the best reading; 5 could be 6 / Panel C, DH_31, IC50: small print, 6.51 ± 1.40 is the best reading; 6 could be 8 or 5 / Panel C, TM-(–)-18, IC50: small print, 7.25 ± 1.25 is the best reading
smiles,measurement,setting,value
"COc1c(C)cc2c(c1O)[C@@H]1CN(Cc3ccc4ccccc4c3)[C@@H](C#N)[C@H](C2)N1C [DH_31, (1R,4R,5S)-10-hydroxy-9-methoxy-8,11-dimethyl-3-(naphthalen-2-ylmethyl)-1,2,3,4,5,6-hexahydro-1,5-epiminobenzo[d]azocine-4-carbonitrile]",mRNA expression of STAT3,[1],did not change significantly
same,IC50,[2],6.51 ± 1.4 µM

# Source: paper PMC11355573, “A New Renieramycin T Right-Half Analog as a Small Molecule Degrader of STAT3” (Marine Drugs, 2024)
